# In paper PMC8413292, “Small-molecule polymerase inhibitor protects non-human primates from measles and reduces shedding” (Nature Communications, 2021):
# “And” between values parts separate entries of the source, which are not always exact repeats. Equal values may be shown once. Read-outs that look alike come from different tables or passages of the source.
# Columns and labels:
# Format in all cases: in vivo, squirrel monkeys (Saimiri sciureus)
# [1] = Single-dose oral pharmacokinetic study in squirrel monkeys (LC/MS/MS serum concentrations); conditions: for tmax: 50 mg/kg oral (intragastric) single dose
# Description: (§1) All animal experiments were carried out in compliance with the regulations of German animal protection laws and authorized by the Regierungspräsidium Darmstadt, Germany (Dezernat V54 – Veterinärwesen und Verbraucherschutz, Hilpertstrasse 31, 64295 Darmstadt). Adult male and female squirrel monkeys (Saimiri sciureus) were obtained from BioPRIM, 31450 Baziege, or CNRS 0846 Primatologie, 13790 Rousset, France. Each experimental group was housed in a separate room, and animals of the same sex were caged together within the respective groups. For the single-dose pharmacokinetic experiment, animals were anesthetized, and the drug was given through a stomach tube at a concentration of 50 mg/kg bodyweight. Blood samples were collected after 15, 30, and 60 min, and 2, 3, 6, and 24 h. For efficacy assessment, groups of 6 animals were left untreated or treated with 50 mg/kg of ERDRP-0519 twice daily for two weeks, starting either 12 h before or 3 or 7 days after intranasal infection with 10^6 TCID50 of MV/FrankfurtMain.DEU/17.11. Clinical signs, rectal temperature, and weight were recorded daily, and throat swabs and blood samples were collected before infection and twice weekly thereafter. On day 21 post-infection, the animals were euthanized, necropsied, and samples were collected for histological analysis.
# Drug concentrations were determined using an internal standard and a reversed phase isocratic HPLC method with positive ion electrospray ionization (ESI) mass spectrometry detection (LC/MS/MS) on an AB-SCIEX API 5500 MS/MS instrument (5 μl injection volume). Pharmacokinetic parameters were estimated using WinNonlin 5.3 (Pharsight).
# [2] = tested on: MV/FrankfurtMain.DEU/17.11 (genotype D8); test: PBMC-associated viremia titers (limited dilution, TCID50/10^6 PBMCs); conditions: for Viral titers: individual animals
# Description: White blood cell counts, viral load quantification in PBMCs, and quantification of neutralizing antibody titers were performed as follows: for white blood cell counts, blood was diluted 1:100 in 3% acetic acid and cells were counted using a Neubauer chamber. For viral load quantification in PBMCs, blood was centrifuged at 3000 rpm for 15 min and serum was frozen at −20 °C until further use. Red blood cell lysis was performed and the remaining PBMCs were counted using a Neubauer chamber. Viral titers in PBMCs were quantified in quadruplicates using limited dilution method and calculated as TCID50/10^6 PBMCs. Neutralizing antibody titers were quantified by incubating MeV with 2-fold serial dilutions of the respective serum for 20 min at room temperature in quadruplicates. Vero/hSLAM cells were added and incubated for 3 days at 37 °C. Neutralizing antibody titers are expressed as the reciprocal of the highest serum dilution showing no signs of infection. For virus titration from throat swabs, swabs were placed in 150 μl DMEM with 3% penicillin/streptomycin and the titer was quantified by limited dilution method.
# [3] = Body weight of squirrel monkeys during the efficacy study; conditions: all animals throughout the study
# Description: as §1
# [4] = both sexes, monkey, serum, squirrel monkeys, 50 mg/kg oral single dose, n = 3
compound,measurement,setting,value
Cn1nc(C(F)(F)F)cc1C(=O)Nc1ccc(S(=O)(=O)N2CCCC[C@H]2CCN2CCOCC2)cc1 [ERDRP-0519],concentration at 2 h,"[1]; 50 mg/kg oral, 0.25 h post-application, individual animals, read-out: ERDRP-0519 serum conc.",672.2 nM and 1545 nM and 3833 nM
same,concentration at 2 h,"[1]; 50 mg/kg oral, 0.5 h post-application, individual animals, read-out: ERDRP-0519 serum conc.",691.1 nM and 917.7 nM and 3493 nM
same,concentration at 2 h,"[1]; 50 mg/kg oral, 1 h post-application, individual animals, read-out: ERDRP-0519 serum conc.",1158 nM and 2002 nM and 3607 nM
same,concentration at 2 h,"[1]; 50 mg/kg oral, 2 h post-application, individual animals, read-out: ERDRP-0519 serum conc.",3078 nM and 3040 nM
same,concentration at 2 h,"[1]; 50 mg/kg oral, 3 h post-application, individual animals, read-out: ERDRP-0519 serum conc.",2889 nM and 2172 nM
same,concentration at 2 h,"[1]; 50 mg/kg oral, 6 h post-application, individual animals, read-out: ERDRP-0519 serum conc.",1259.5 nM and 991.4 nM
same,concentration at 2 h,"[1]; 50 mg/kg oral, 24 h post-application, individual animals, read-out: ERDRP-0519 serum conc.",39.09 nM and 98 nM and 77.99 nM
same,concentration at 0 h,"[1]; both sexes, monkey, serum, oral, 50 mg/kg, 50 mg/kg oral, 0 h post-application, individual animals, read-out: ERDRP-0519 serum conc.",0 nM
same,concentration at 2 h,"[1]; both sexes, monkey, serum, oral, 50 mg/kg, 50 mg/kg oral, 2 h post-application, individual animals, read-out: ERDRP-0519 serum conc.",2490 nM
same,concentration at 3 h,"[1]; both sexes, monkey, serum, oral, 50 mg/kg, 50 mg/kg oral, 3 h post-application, individual animals, read-out: ERDRP-0519 serum conc.",2510 nM
same,concentration at 6 h,"[1]; both sexes, monkey, serum, oral, 50 mg/kg, 50 mg/kg oral, 6 h post-application, individual animals, read-out: ERDRP-0519 serum conc.",1340 nM
same,tmax,"[1]; both sexes, monkey, serum, po, 50 mg/kg, squirrel monkeys, n = 3, read-out: tmax",1.8 h
same,AUC(0-inf),[1]; [4],24.4 µM·h
same,Cmax,[1]; [4],3270 nM
same,half-life,"[1]; both sexes, monkey, serum, squirrel monkeys, 50 mg/kg oral single dose, n = 3, read-out: t1/2 terminal elimination half-life (converted)",4.2 h
same,tmax,"[1]; squirrel monkeys, n = 3, 50 mg/kg",~ 2 h
same,effect on PBMC-associated virus replication,[2]; day 3 therapeutic administration,effectively suppressed virus replication
same,Viral titers,"[2]; prophylactic group, day 3",1.745 log10(TCID50/106 PBMCs)
same,Viral titers,"[2]; prophylactic group, day 7",1.509 log10(TCID50/106 PBMCs) and 0 log10(TCID50/106 PBMCs)
same,Viral titers,"[2]; prophylactic group, day 10",1.807 log10(TCID50/106 PBMCs)
same,Viral titers,"[2]; prophylactic group, day 17",0.7747 log10(TCID50/106 PBMCs)
same,Viral titers,"[2]; prophylactic group, day 21",2.352 log10(TCID50/106 PBMCs)
same,decrease of viremia titers on average compared to untreated animals,[2]; prophylactic treatment,up to 250 fold
same,"PBMC Titers, group mean (Mean 2)","[2]; prophylactic, Row 1 (1st of 7 time points)",0
same,"PBMC Titers, group mean (Mean 2)","[2]; prophylactic, Row 2 (2nd of 7 time points)",0.2908
same,"PBMC Titers, group mean (Mean 2)","[2]; prophylactic, Row 3 (3rd of 7 time points)",0.2514
same,"PBMC Titers, group mean (Mean 2)","[2]; prophylactic, Row 4 (4th of 7 time points)",0.3012
same,"PBMC Titers, group mean (Mean 2)","[2]; prophylactic, Row 5 (5th of 7 time points)",0
same,"PBMC Titers, group mean (Mean 2)","[2]; prophylactic, Row 6 (6th of 7 time points)",0.1283
same,"PBMC Titers, group mean (Mean 2)","[2]; prophylactic, Row 7 (7th of 7 time points)",0.3917
same,Viral titers,"[2]; therapeutic (d3) group, day 3",1.097 log10(TCID50/106 PBMCs) and 1.77 log10(TCID50/106 PBMCs)
same,Viral titers,"[2]; therapeutic (d3) group, day 7",0.7905 log10(TCID50/106 PBMCs) and 1.004 log10(TCID50/106 PBMCs) and 2.281 log10(TCID50/106 PBMCs) and 0 log10(TCID50/106 PBMCs)
same,Viral titers,"[2]; therapeutic (d3) group, day 10",1.35 log10(TCID50/106 PBMCs) and 0.8861 log10(TCID50/106 PBMCs) and 2.045 log10(TCID50/106 PBMCs)
same,Viral titers,"[2]; therapeutic (d3) group, day 14",0.7375 log10(TCID50/106 PBMCs)
same,"PBMC Titers, group mean (Mean 2)","[2]; therapeutic (d3), Row 1 (1st of 7 time points)",0
same,"PBMC Titers, group mean (Mean 2)","[2]; therapeutic (d3), Row 2 (2nd of 7 time points)",0.4783
same,"PBMC Titers, group mean (Mean 2)","[2]; therapeutic (d3), Row 3 (3rd of 7 time points)",0.6785
same,"PBMC Titers, group mean (Mean 2)","[2]; therapeutic (d3), Row 4 (4th of 7 time points)",0.7141
same,"PBMC Titers, group mean (Mean 2)","[2]; therapeutic (d3), Row 5 (5th of 7 time points)",0.1233
same,"PBMC Titers, group mean (Mean 2)","[2]; therapeutic (d3), Row 6 (6th of 7 time points)",0
same,"PBMC Titers, group mean (Mean 2)","[2]; therapeutic (d3), Row 7 (7th of 7 time points)",0
same,Viral titers,"[2]; therapeutic (d7) group, day 3",0.6162 log10(TCID50/106 PBMCs) and 0.7122 log10(TCID50/106 PBMCs) and 0.8794 log10(TCID50/106 PBMCs) and 0.6642 log10(TCID50/106 PBMCs) and 1.712 log10(TCID50/106 PBMCs)
same,Viral titers,"[2]; therapeutic (d7) group, day 7",2.108 log10(TCID50/106 PBMCs) (2×) and 1.9431 log10(TCID50/106 PBMCs) and 1.854 log10(TCID50/106 PBMCs) and 1.9914 log10(TCID50/106 PBMCs) and 1.699 log10(TCID50/106 PBMCs)
same,Viral titers,"[2]; therapeutic (d7) group, day 10",2.513 log10(TCID50/106 PBMCs) and 2.092 log10(TCID50/106 PBMCs) and 2.1549 log10(TCID50/106 PBMCs) and 2.936 log10(TCID50/106 PBMCs) and 2.626 log10(TCID50/106 PBMCs) and 2.438 log10(TCID50/106 PBMCs)
same,Viral titers,"[2]; therapeutic (d7) group, day 14",0.7959 log10(TCID50/106 PBMCs) and 0.3979 log10(TCID50/106 PBMCs) and 1.735 log10(TCID50/106 PBMCs)
same,Viral titers,"[2]; therapeutic (d7) group, day 17",1.174 log10(TCID50/106 PBMCs) and 0.6271 log10(TCID50/106 PBMCs)
same,"PBMC Titers, group mean (Mean 2)","[2]; therapeutic (d7), Row 1 (1st of 7 time points)",0
same,"PBMC Titers, group mean (Mean 2)","[2]; therapeutic (d7), Row 2 (2nd of 7 time points)",0.7636
same,"PBMC Titers, group mean (Mean 2)","[2]; therapeutic (d7), Row 3 (3rd of 7 time points)",1.95
same,"PBMC Titers, group mean (Mean 2)","[2]; therapeutic (d7), Row 4 (4th of 7 time points)",2.46
same,"PBMC Titers, group mean (Mean 2)","[2]; therapeutic (d7), Row 5 (5th of 7 time points)",0.49
same,"PBMC Titers, group mean (Mean 2)","[2]; therapeutic (d7), Row 6 (6th of 7 time points)",0.3
same,"PBMC Titers, group mean (Mean 2)","[2]; therapeutic (d7), Row 7 (7th of 7 time points)",0
same,effect on height of maximum virus load,"[2]; treatment initiated at day 7 post-infection, maximum on day 10",no significant effect on the height of maximum virus load
same,"PBMC Titers, Mean Diff, untreated vs. treated","[2]; untreated vs. prophylactic, Row 1 (1st of 7 time points)",0
same,"PBMC Titers, Mean Diff, untreated vs. treated","[2]; untreated vs. prophylactic, Row 2 (2nd of 7 time points)",0.1201
same,"PBMC Titers, Mean Diff, untreated vs. treated","[2]; untreated vs. prophylactic, Row 3 (3rd of 7 time points)",2.622
same,"PBMC Titers, Mean Diff, untreated vs. treated","[2]; untreated vs. prophylactic, Row 4 (4th of 7 time points)",1.541
same,"PBMC Titers, Mean Diff, untreated vs. treated","[2]; untreated vs. prophylactic, Row 5 (5th of 7 time points)",0.3677
same,"PBMC Titers, Mean Diff, untreated vs. treated","[2]; untreated vs. prophylactic, Row 6 (6th of 7 time points)",0.1017
same,"PBMC Titers, Mean Diff, untreated vs. treated","[2]; untreated vs. prophylactic, Row 7 (7th of 7 time points)",-0.3917
same,"PBMC Titers, Mean Diff, untreated vs. treated","[2]; untreated vs. therapeutic (d3), Row 1 (1st of 7 time points)",0
same,"PBMC Titers, Mean Diff, untreated vs. treated","[2]; untreated vs. therapeutic (d3), Row 2 (2nd of 7 time points)",-0.06733
same,"PBMC Titers, Mean Diff, untreated vs. treated","[2]; untreated vs. therapeutic (d3), Row 3 (3rd of 7 time points)",2.195
same,"PBMC Titers, Mean Diff, untreated vs. treated","[2]; untreated vs. therapeutic (d3), Row 4 (4th of 7 time points)",1.128
same,"PBMC Titers, Mean Diff, untreated vs. treated","[2]; untreated vs. therapeutic (d3), Row 5 (5th of 7 time points)",0.2444
same,"PBMC Titers, Mean Diff, untreated vs. treated","[2]; untreated vs. therapeutic (d3), Row 6 (6th of 7 time points)",0.23
same,"PBMC Titers, Mean Diff, untreated vs. treated","[2]; untreated vs. therapeutic (d3), Row 7 (7th of 7 time points)",0
same,"PBMC Titers, Mean Diff, untreated vs. treated","[2]; untreated vs. therapeutic (d7), Row 1 (1st of 7 time points)",0
same,"PBMC Titers, Mean Diff, untreated vs. treated","[2]; untreated vs. therapeutic (d7), Row 2 (2nd of 7 time points)",-0.3527
same,"PBMC Titers, Mean Diff, untreated vs. treated","[2]; untreated vs. therapeutic (d7), Row 3 (3rd of 7 time points)",0.9232
same,"PBMC Titers, Mean Diff, untreated vs. treated","[2]; untreated vs. therapeutic (d7), Row 4 (4th of 7 time points)",-0.6175
same,"PBMC Titers, Mean Diff, untreated vs. treated","[2]; untreated vs. therapeutic (d7), Row 5 (5th of 7 time points)",-0.1223
same,"PBMC Titers, Mean Diff, untreated vs. treated","[2]; untreated vs. therapeutic (d7), Row 6 (6th of 7 time points)",-0.06996
same,"PBMC Titers, Mean Diff, untreated vs. treated","[2]; untreated vs. therapeutic (d7), Row 7 (7th of 7 time points)",0
same,Body weight changes,[3],negligible
